Laboratory results from ChEMBL document CHEMBL5120766, “Recent insight into the biological activities and SAR of quinolone derivatives as multifunctional scaffold” (Bioorg Med Chem, 2022).
≈ marks a conversion by molar mass, not a printed value.

Experiments:
[1] = tested on: Human immunodeficiency virus 1; assay: Antiviral activity against HIV1 infected in human MT4 cells by MTT assay; type: functional, organism-based; conditions: Human immunodeficiency virus 1, MT4
[2] = tested on: Human immunodeficiency virus 2; assay: Antiviral activity against HIV2 infected in human MT4 cells by MTT assay; type: functional, organism-based; conditions: Human immunodeficiency virus 2, MT4
Plasmodium falciparum [3] = assay: Antiplasmodial activity against chloroquine sensitive Plasmodium falciparum NF54 infected in human red blood cells assessed as reduction in [3H]-hypoxanthine incorporation pretreated for 48 hrs followed by [3H]-hypoxanthine addition measured after 24 hrs by scintillation counting method; type: functional, organism-based
Bacillus subtilis [4] = assay: Antibacterial activity against Bacillus subtilis PTCC 1207 assessed as zone of inhibition incubated for 24 hrs by cup-plate agar diffusion method; type: functional
Escherichia coli [5] = assay: Antibacterial activity against Escherichia coli PTCC 1047 assessed as zone of inhibition incubated for 24 hrs by cup-plate agar diffusion method; type: functional
Cytochrome P450 3A4 = Cytochrome P450 3A4 (Homo sapiens, UniProt P08684); assay: Inhibition of CYP3A4 in human liver microsomes using midazolam as substrate; type: ADME, Microsome
Clostridium perfringens = assay: Antibacterial activity against Clostridium perfringens 22 incubated for 18 hrs by microbroth dilution method; type: functional
Bacteroides fragilis = assay: Antibacterial activity against Bacteroides fragilis PA-2-II incubated for 18 hrs by microbroth dilution method; type: functional
Plasmodium falciparum [6] = assay: Antiplasmodial activity against Plasmodium falciparum 3D7 assessed as cell growth inhibition; type: functional, organism-based
Plasmodium falciparum [7] = assay: Antiplasmodial activity against Plasmodium falciparum FCR-3 assessed as cell growth inhibition; type: functional, organism-based
A549 = assay: Antiproliferative activity against human A549 cells assessed as cell growth inhibition measured after 72 hrs by MTT assay; type: functional, cell-based; conditions: A549, 72 h
[8] = tested on: Mycobacterium tuberculosis; assay: Antimycobacterial activity against Mycobacterium tuberculosis H37Rv assessed as inhibition of bacterial growth measured after 7 days by alamar blue dye based microplate analysis; type: functional; conditions: 168 h, time 7 day
[9] = tested on: Mycobacterium tuberculosis; assay: Antimycobacterial activity against Mycobacterium tuberculosis H37Rv assessed as inhibition of bacterial growth measured after 24 hrs by turbidity based analysis; type: functional
Pseudomonas aeruginosa [10] = assay: Antibacterial activity against Pseudomonas aeruginosa NCDC 105 assessed as zone of inhibition at 10 ug/ml by agar well diffusion method; type: functional; conditions: read-out: DIZ
Pseudomonas aeruginosa [11] = assay: Antibacterial activity against Pseudomonas aeruginosa NCDC 105 assessed as zone of inhibition at 50 ug/ml by agar well diffusion method; type: functional; conditions: read-out: DIZ
Pseudomonas aeruginosa [12] = assay: Antibacterial activity against Pseudomonas aeruginosa NCDC 105 assessed as zone of inhibition at 100 ug/ml by agar well diffusion method; type: functional; conditions: read-out: DIZ
Staphylococcus aureus [13] = assay: Antibacterial activity against Staphylococcus aureus ATCC 6538p incubated for 18 hrs by agar dilution method; type: functional
[14] = tested on: Staphylococcus epidermidis; assay: Antibacterial activity against Staphylococcus epidermidis ATCC 12228 incubated for 18 hrs by agar dilution method; type: functional
Bacillus subtilis [15] = assay: Antibacterial activity against Bacillus subtilis ATCC 6633 incubated for 18 hrs by agar dilution method; type: functional
Escherichia coli [16] = assay: Antibacterial activity against Escherichia coli ATCC 35218 incubated for 24 hrs by serial dilution method; type: functional
Klebsiella pneumoniae = assay: Antibacterial activity against Klebsiella pneumoniae ATCC 35657 incubated for 24 hrs by serial dilution method; type: functional
Escherichia coli [17] = assay: Antibacterial activity against Escherichia coli ATCC 8739 assessed as zone of inhibition by agar dilution method; type: functional
Staphylococcus aureus [18] = assay: Antibacterial activity against Staphylococcus aureus ATCC 6538 assessed as zone of inhibition by agar dilution method; type: functional
[19] = tested on: Human immunodeficiency virus 1; assay: Antiviral activity against wild type HIV1 infected in human C8166 cells; type: functional, organism-based; conditions: Human immunodeficiency virus 1, C8166
[20] = tested on: Human immunodeficiency virus 1; assay: Antiviral activity against HIV1 A17 mutant infected in human C8166 cells; type: functional, organism-based; conditions: Human immunodeficiency virus 1, A17, C8166

Chain of Cytochrome P450 3A4 (P08684 whole entry): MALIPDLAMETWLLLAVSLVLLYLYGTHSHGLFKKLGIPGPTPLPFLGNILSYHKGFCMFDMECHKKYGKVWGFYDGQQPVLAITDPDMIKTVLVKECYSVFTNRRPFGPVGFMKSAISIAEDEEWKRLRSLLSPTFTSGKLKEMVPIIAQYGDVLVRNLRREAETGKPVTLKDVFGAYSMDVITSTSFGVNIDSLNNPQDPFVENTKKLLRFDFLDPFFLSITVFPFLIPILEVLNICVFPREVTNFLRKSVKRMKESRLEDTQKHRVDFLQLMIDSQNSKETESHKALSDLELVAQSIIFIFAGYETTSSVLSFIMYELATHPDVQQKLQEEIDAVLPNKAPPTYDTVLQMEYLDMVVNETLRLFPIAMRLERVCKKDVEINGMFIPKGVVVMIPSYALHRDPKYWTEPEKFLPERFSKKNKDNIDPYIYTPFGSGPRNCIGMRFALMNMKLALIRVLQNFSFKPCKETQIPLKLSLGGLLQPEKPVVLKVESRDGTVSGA

**Q.** `Cn1cc(C(=O)O)c(=O)c2ccc(N3CCN(c4nc5ccccc5s4)CC3)nc21` was tested. Which EC50 [1] did it give?
**A.** 60 nM

**Q.** What about the EC50 [2] of the same compound?
**A.** 40 nM

**Q.** `Cn1c(-c2ccc(CCCCCCCCCCN3CCCCC3)cc2)cc(=O)c2ccccc21` was tested. Which IC50 (Plasmodium falciparum [3]) did it give?
**A.** 820 nM

**Q.** Which “diameter of the inhibition zone (DIZ)” value (Bacillus subtilis [4]) does the source give for `CCn1cc(C(=O)O)c(=O)c2cc(F)c(N3CCN(C/C(=N\OC)c4cc5cccc(OC)c5oc4=O)CC3)cc21` here?
**A.** 36 mm

**Q.** And the “diameter of the inhibition zone (DIZ)” value (Escherichia coli [5])?
**A.** 32 mm

**Q.** For `COc1c(N2CC[C@@H](C3(N)CC3)C2)ccc2c(=O)c(C(=O)O)cn([C@@H]3C[C@@H]3F)c12`, which Ki (Cytochrome P450 3A4) is on record?
**A.** 67900 nM

**Q.** Which MIC (Clostridium perfringens) does the source give for `Cc1c(N2C[C@]3(N)CCC[C@]3(F)C2)c(F)cc2c(=O)c(C(=O)O)cn([C@@H]3C[C@@H]3F)c12.Cl.O.O` here?
**A.** ≤ 0.05 µg/mL

**Q.** And the MIC (Bacteroides fragilis)?
**A.** ≤ 0.05 µg/mL

**Q.** `C[C@H]1[C@@H](OC(=O)c2cn(C3CC3)c3cc(N4CCNCC4)c(F)cc3c2=O)O[C@@H]2O[C@@]3(C)CC[C@H]4[C@H](C)CC[C@@H]1[C@@]24OO3` was tested. Which IC50 (Plasmodium falciparum [6]) did it give?
**A.** 9.97 nM

**Q.** With `Cn1cc(C(=O)N/N=C\c2ccccn2)c(=O)c2cc(F)ccc21` as the compound, how does the IC50 (Plasmodium falciparum [7]) read?
**A.** 3300 nM

**Q.** For `N=C(NS(=O)(=O)c1ccccc1C(F)(F)F)N1CCN(c2cc3c(cc2F)c(=O)c(C(=O)O)cn3-c2ccc(F)cc2F)CC1`, which IC50 (A549) is on record?
**A.** 9 nM

**Q.** How did the MIC [8] turn out when `COc1ccc(C(=O)N/N=C(/C)CCN2CCN(c3c(F)cc4c(=O)c(C(=O)O)cn(C5CC5)c4c3OC)CC2)cc1` was run?
**A.** 0.5 µM (≈ 0.29 µg/mL)

**Q.** `CCn1cc(C(=O)O)c(=O)c2cc(F)c(N3CCN(CC(=O)Nc4nnc(-c5ccc(Cl)cc5Cl)s4)CC3)cc21` was tested. Which MIC [9] did it give?
**A.** 8 µg/mL (≈ 13.2 µM)

**Q.** Which zone of inhibition at 10 µg/mL (Pseudomonas aeruginosa [10]) does the source give for `CCn1cc(C(=O)O)c(=O)c2cc(F)c(N3CCN(CNc4nc5ccc(F)cc5s4)CC3)cc21` here?
**A.** 3.3 mm

**Q.** And the zone of inhibition at 50 µg/mL (Pseudomonas aeruginosa [11])?
**A.** 3.8 mm

**Q.** And the zone of inhibition at 100 µg/mL (Pseudomonas aeruginosa [12])?
**A.** 4.8 mm

**Q.** With `Cn1c(-c2ccc(CCCCCCBr)cc2)cc(=O)c2ccccc21` as the compound, how does the IC50 (Plasmodium falciparum [3]) read?
**A.** 90 nM

**Q.** For `CCn1cc(C(=O)O)c(=O)c2cc(F)c(N3CCN(C/C(=N\OC)c4cc5cccc(OC)c5oc4=O)CC3)nc21`, which “diameter of the inhibition zone (DIZ)” value (Bacillus subtilis [4]) is on record?
**A.** 39 mm

**Q.** And the “diameter of the inhibition zone (DIZ)” value (Escherichia coli [5])?
**A.** 35 mm

**Q.** What does the source list for `O=C(O)c1cn(-c2ccc(F)cc2)c2cc(N3CCN(C/C(=N\O)c4ccccc4)CC3)c(F)cc2c1=O`?
**A.** MIC (Staphylococcus aureus [13]): < 0.125 µg/mL; MIC [14]: < 0.125 µg/mL; MIC (Bacillus subtilis [15]): < 0.125 µg/mL

**Q.** `O=C(NO)c1cn(C2CC2)c2cc(-n3cc(CN4CCOCC4)nn3)c(F)cc2c1=O` was tested. Which MIC (Escherichia coli [16]) did it give?
**A.** 4 µg/mL (≈ 9.34 µM)

**Q.** What about the MIC (Klebsiella pneumoniae) of the same compound?
**A.** 4 µg/mL (≈ 9.34 µM)

**Q.** Which results are given for `O=C([O-])c1cn(CCn2cc(C(=O)[O-])c(=O)c3cc(F)c(N4CC5CCCNC5C4)c(F)c32)c2c(F)c(N3CC4CCCNC4C3)c(F)cc2c1=O.[Na+].[Na+]` (stereo unspecified)?
**A.** diameter of the inhibition zone (DIZ) (Escherichia coli [17]): 22 mm; diameter of the inhibition zone (DIZ) (Staphylococcus aureus [18]): 15 mm

**Q.** Which results are given for `O=C(O)c1cn(C2CC2)c2cc(N3CCN(CNc4nc5ccc([N+](=O)[O-])cc5s4)CC3)c(F)cc2c1=O`?
**A.** zone of inhibition at 10 µg/mL (Pseudomonas aeruginosa [10]): 3.5 mm; zone of inhibition at 50 µg/mL (Pseudomonas aeruginosa [11]): 5.5 mm; zone of inhibition at 100 µg/mL (Pseudomonas aeruginosa [12]): 6.3 mm

**Q.** What does the source list for `CC(C)[C@@H](CO)n1cc(C(=O)O)c(=O)c2c(F)c(Cc3cccc(Cl)c3F)ccc21`?
**A.** EC50 [19]: 32 nM; EC50 [20]: 82 nM
